Where two headings read alike, the source gives them in different places.

For orientation: melting point means the temperature of the solid-liquid transition. As usually defined, the solubility is the concentration that dissolves in the medium under given conditions. Low readings indicate a poorly soluble substance, high ones a readily soluble substance.

Experiment in series [1]: not given
The source holds these as a separate data set.

Series [2] is described as follows: Solubility/stability (chemiluminescent nitrogen detector). Type of series: physicochemical. Conditions: water. The source says:
The solubility of a compound measures the ability of a compound to stay in solution. The solubility of a compound at different pH's can be measured with the use of a chemiluminescent nitrogen detector (see example C.3).
The solubility of a compound, at different pH's, can be measured with the use of a chemiluminescent nitrogen detector.

Series [3] relates to A2780 ovarian carcinoma cells. Put plainly: Determination of antiproliferative activity on A2780 cells (MTT). The series is classed as cell-based. Conditions: Homo sapiens, 96 h, four days of incubation, read-out: Cellular activity pIC50 (converted). The method, then:
Cellular activity of the compounds of formula (I) was determined on A2780 tumour cells using a colorimetric assay for cell toxicity or survival (Mosmann Tim, Journal of Immunological Methods 65:55-63, 1983)(see example C.2).
All compounds tested were dissolved in DMSO and further dilutions were made in culture medium. Final DMSO concentrations never exceeded 0.1% (v/v) in cell proliferation assays. Controls contained A2780 cells and DMSO without compound and blanks contained DMSO but no cells. MTT was dissolved at 5 mg/ml in PBS. A glycine buffer comprised of 0.1 M glycine and 0.1 M NaCl buffered to pH 10.5 with NaOH (1 N) was prepared (all reagents were from Merck).
The human A2780 ovarian carcinoma cells (a kind gift from Dr. T. C. Hamilton [Fox Chase Cancer Centre, Pennsylvania, USA]) were cultured in RPMI 1640 medium supplemented with 2 mM L-glutamine, 50 μg/ml gentamicin and 10% fetal calf serum. Cells were routinely kept as monolayer cultures at 37° C. in a humidified 5% CO2 atmosphere. Cells were passaged once a week using a trypsin/EDTA solution at a split ratio of 1:40. All media and supplements were obtained from Life Technologies. Cells were free of mycoplasma contamination as determined using the Gen-Probe Mycoplasma Tissue Culture kit (supplier: BioMerieux).
Cells were seeded in NUNC™ 96-well culture plates (Supplier: Life Technologies) and allowed to adhere to the plastic overnight. Densities used for plating were 1500 cells per well in a total volume of 200 μl medium. After cell adhesion to the plates, medium was changed and drugs and/or solvents were added to a final volume of 200 μl. Following four days of incubation, medium was replaced by 200 μl fresh medium and cell density and viability was assessed using an MTT-based assay. To each well, 25 μl MTT solution was added and the cells were further incubated for 2 hours at 37° C. The medium was then carefully aspirated and the blue MTT-formazan product was solubilized by addition of 25 μl glycine buffer followed by 100 μl of DMSO. […] Within an experiment, the results for each experimental condition are the mean of 3 replicate wells. For initial screening purposes, compounds were tested at a single fixed concentration of 10^−6 M. For active compounds, the experiments were repeated to establish full concentration-response curves. For each experiment, controls (containing no drug) and a blank incubation (containing no cells or drugs) were run in parallel. The blank value was subtracted from all control and sample values. For each sample, the mean value for cell growth (in absorbance units) was expressed as a percentage of the mean value for cell growth of the control. […] Herein the effects of test compounds are expressed as pIC50 (the negative log value of the IC50-value)(see Table F-3).

In series [4] the target is histone deacetylase (HeLa nuclear extracts). Put plainly: In vitro assay for inhibition of histone deacetylase (HDAC Fluorescent Activity Assay, Fluor de Lys). The series is classed as biochemical. As to conditions: HeLa nuclear extracts 60 μg/ml, 75 μM Fluor de Lys substrate. The source says:
The in vitro assay for inhibition of histone deacetylase (see example C.1) measures the inhibition of HDAC enzymatic activity obtained with the compounds of formula (I).
The HDAC Fluorescent Activity Assay/Drug Discovery Kit of Biomol (cat.No: AK-500-0001) was used. The HDAC Fluorescent Activity Assay is based on the Fluor de Lys (Fluorogenic Histone deAcetylase Lysyl) substrate and developer combination. The Fluor de Lys substrate, comprises an acetylated lysine side chain. Deacetylation of the substrate sensitizes the substrate so that, in the second step, treatment with the Fluor de Lys developer produces a fluorophore.
HeLa nuclear extracts (supplier: Biomol) were incubated at 60 μg/ml with 75 μM of substrate. The Fluor de Lys substrate was added in a buffer containing 25 mM Tris, 137 mM. NaCl, 2.7 mM KCl and 1 mM MgCl2.6H2O at pH 7.4. After 30 min, 1 volume of the developer was added. The fluorophore was excited with 355 nm light and the emitted light (450 nm) was be detected on a fluorometric plate reader.
For each experiment, controls (containing HeLa nuclear extract and buffer), a blank incubation (containing buffer but no HeLa nuclear extract) and samples (containing compound dissolved in DMSO and further diluted in buffer and HeLa nuclear extract) were run in parallel. In first instance, compounds were tested at a concentration of 10^−5M. […] All sample were tested 4 times. In each test the blank value was substracted from both the control and the sample values. The control sample represented 100% of substrate deactylation. For each sample the fluorescence was expressed as a percentage of the mean value of the controls. […] Herein the effects of test compounds are expressed as pIC50 (the negative log value of the IC50-value) (see Table F-3).

The nature of series [5]: Metabolic stability with rat hepatocytes cell culture. Type of series: in vitro ADME. Conditions: rat hepatocyte cell cultures, 5 μM. An excerpt: Metabolism of drugs means that a lipid-soluble xenobiotic or endobiotic compound is enzymatically transformed into (a) polar, water-soluble, and excretable metabolite(s). The major organ for drug metabolism is the liver. […] However, some metabolites may have enhanced activity or toxic effects. Thus drug metabolism may include both “detoxication” and “toxication” processes. One of the major enzyme systems that determine the organism's capability of dealing with drugs and chemicals is represented by the cytochrome P450 monooxygenases, which are NADPH dependent enzymes. Metabolic stability of compounds can be determined in vitro with the use of subcellular human tissue (see example C.5.a.). Here metabolic stability of the compounds is expressed as % of drug metabolised after 15 minutes incubation of these compounds with microsomes. Quantitation of the compounds was determined by LC-MS analysis. Metabolic stability of compounds can also be determined by calculating the half live of compounds in rat hepatocyte cells (see example C.5.b.). […]
Samples were prepared for LC-MS by addition of two volumes of DMSO. […] Of the resulting supernatant 50 μl was analysed by LC-MS. […]
Total injection volume of samples was 50 μL. […] The mass spectrometer was operated in positive ion mode in SIM adjusted to the mass of […] with a scan width of 1 Da for quantification purposes. […]

With `O=C(NO)c1cnc(N2CCC(CNC(/C=C/c3ccccc3)CO)CC2)nc1` (stereo not shown) (hydrate or solvate) [Compound 1], the melting point was 196 °C.

Compound `O=C(NO)c1cnc(N2CCC(NC(/C=C/c3ccccc3)CO)CC2)nc1` (stereo not shown) (hydrate or solvate) [Compound 2] returned a melting point of 109 °C.

With `COc1cc(N)c(Cl)cc1C(=O)NC1CCN(CCCOc2ccc(F)cc2)CC1OC` (stereo not shown) [Cisapride], the “% metabolism” value in series [1] (human, 15 min, 5 μM) came out at 45%.

`O=C(NO)c1cnc(N2CCC(NC(/C=C/c3ccccc3)CO)CC2)nc1` (stereo not shown) [Compound 2]: the solubility in series [2] was greater than 500 µg/mL. The IC50 in series [3] was 158 nM. Moreover, the “Enzyme activity pIC50” value in series [4] was 8.0.

Compound `CC(/C=C/c1ccccc1)NCC1CCN(c2ncc(C(=O)NO)cn2)CC1` (stereo not shown) [Compound 3] gave a melting point of 155 °C. In addition, in series [2], the solubility was greater than 1000 µg/mL. Further, in series [3], the IC50 is 50.1 nM. Further, the “Enzyme activity pIC50” value in series [4] came to 8.3.

As to `CC(=O)N(CC1CCN(c2ncc(C(=O)NO)cn2)CC1)C(C)/C=C/c1ccccc1` (stereo not shown) [Compound 4], the melting point amounted to 100 °C. The same compound returned a solubility in series [2] greater than 100 µg/mL. In addition, the IC50 in series [3] was 158 nM. Besides, the “Enzyme activity pIC50” value in series [4] was 8.7.

In turn, `Nc1ccccc1NC(=O)c1cnc(N2CCC(CNC(/C=C/c3ccccc3)CO)CC2)nc1` (stereo not shown) [Compound 5] gave a melting point of 178 °C. The IC50 in series [3] is 3160 nM. In addition, the “Enzyme activity pIC50” value in series [4] stood at 6.0.

For `O=C(NO)c1cnc(N2CCOC(CNC(/C=C/c3ccccc3)CO)C2)nc1` (stereo not shown) [Compound 6], the melting point was found to be 111 °C. In addition, in series [3], the IC50 was 79.4 nM. Moreover, in series [4], the “Enzyme activity pIC50” value was 8.1.

`Nc1ccccc1NC(=O)c1cnc(N2CCOC(CNC(/C=C/c3ccccc3)CO)C2)nc1` (stereo not shown) [Compound 7] returned a melting point of 95 °C. Also, the IC50 in series [3] is 1260 nM. In addition, the “Enzyme activity pIC50” value in series [4] turned out to be 6.0.

As for `CC(/C=C/c1ccccc1)N(CC1CCN(c2ncc(C(=O)NO)cn2)CC1)S(C)(=O)=O` (stereo not shown) [Compound 8], the melting point was 110 °C. Besides, the IC50 in series [3] was 200 nM. The “Enzyme activity pIC50” value in series [4] is given as 9.5.

As for `O=C(NO)c1cnc(N2CCN(S(=O)(=O)c3ccc4ccccc4c3)CC2)nc1` [Compound R306465, reference compound], the in vitro half-live in series [5] is on record as 8 min.

Regarding `CCCO` [propanol], the “% metabolism” value in series [1] (15 min incubation with active microsomes, compound 5 μM) is 25%.

The values are drawn from US8377935B2, “Substituted aminopropenyl piperidine or morpholine derivatives as novel inhibitors of histone deacetylase” (Janssen Pharmaceutica N.V., priority 2005, dated 2013).
